Active and inactive are the calls of the source. How the calls were made is not given here.
System: CCRIS mutagenicity, Ames/micronucleus/aberration tests
Test: CCRIS mutagenicity studies
[1] = Test System: AMES SALMONELLA TYPHIMURIUM, Strain/Indicator: TA97, Metabolic Activation: NONE, Method: PREINCUBATION
[2] = Test System: AMES SALMONELLA TYPHIMURIUM, Strain/Indicator: TA98, Metabolic Activation: NONE, Method: PREINCUBATION
[3] = Test System: AMES SALMONELLA TYPHIMURIUM, Strain/Indicator: TA100, Metabolic Activation: NONE, Method: STANDARD PLATE

SMILES: O=CC(Cl)(Cl)Cl
- mutagenic call (Test System: AMES SALMONELLA TYPHIMURIUM, Strain/Indicator: TA97, Metabolic Activation: HAMSTER, LIVER, S-9, AROCLOR 1254 (10%), Method: PREINCUBATION): inactive; negative
- mutagenic call [1]: inactive; negative
- mutagenic call (Test System: AMES SALMONELLA TYPHIMURIUM, Strain/Indicator: TA97, Metabolic Activation: RAT, LIVER, S-9, AROCLOR 1254 (10%), Method: PREINCUBATION): inactive; negative
- mutagenic call (Test System: AMES SALMONELLA TYPHIMURIUM, Strain/Indicator: TA98, Metabolic Activation: HAMSTER, LIVER, S-9, AROCLOR 1254 (10%), Method: PREINCUBATION): inactive; negative
- mutagenic call [2]: inactive; negative
- mutagenic call (Test System: AMES SALMONELLA TYPHIMURIUM, Strain/Indicator: TA98, Metabolic Activation: RAT, LIVER, S-9, AROCLOR 1254 (10%), Method: PREINCUBATION): inactive; negative
- mutagenic call (Test System: AMES SALMONELLA TYPHIMURIUM, Strain/Indicator: TA100, Metabolic Activation: HAMSTER, LIVER, S-9, AROCLOR 1254 (5, 10 OR 30%), Method: PREINCUBATION): inactive; negative
- mutagenic call (Test System: AMES SALMONELLA TYPHIMURIUM, Strain/Indicator: TA100, Metabolic Activation: RAT, LIVER, S-9, AROCLOR 1254 (5, 10 OR 30%), Method: PREINCUBATION): inactive; negative
- mutagenic call (Test System: AMES SALMONELLA TYPHIMURIUM, Strain/Indicator: TA100, Metabolic Activation: RAT, LIVER, S-9, Method: PREINCUBATION): active; positive
- mutagenic call (Test System: AMES SALMONELLA TYPHIMURIUM, Strain/Indicator: TA1535, Metabolic Activation: HAMSTER, LIVER, S-9, AROCLOR 1254 (10%), Method: PREINCUBATION): inactive; negative
- mutagenic call (Test System: AMES SALMONELLA TYPHIMURIUM, Strain/Indicator: TA1535, Metabolic Activation: NONE, Method: PREINCUBATION): inactive; negative
- mutagenic call (Test System: AMES SALMONELLA TYPHIMURIUM, Strain/Indicator: TA1535, Metabolic Activation: RAT, LIVER, S-9, AROCLOR 1254 (10%), Method: PREINCUBATION): inactive; negative

SMILES: C1=CC2=C3OC3c3cc4c(cc3C2C=C1)c1c(c2ccccc24)O1 (stereo not drawn)
- mutagenic call [3]: active; positive

SMILES: COS(=O)(=O)c1ccc(C)cc1
- mutagenic call (End Point: IN VITRO MICRONUCLEUS, Test System: MOUSE LYMPHOMA L5178Y CELLS, Metabolic Activation: NONE): active; positive
- mutagenic call (End Point: IN VITRO MICRONUCLEUS, Test System: MOUSE LYMPHOMA L5178Y CELLS, Metabolic Activation: RAT, LIVER, S-9): active; positive
- mutagenic call (End Point: In vitro micronucleus, Test System: Chinese Hamster Ovary (CHO-WBL) cells, Metabolic Activation: None): active; positive (p<0.01)
- mutagenic call [3]: active; positive
- mutagenic call (Test System: AMES SALMONELLA TYPHIMURIUM, Strain/Indicator: TA100, Metabolic Activation: RAT, LIVER, S-9, Method: STANDARD PLATE): active; positive

SMILES: CC[C@@]1(O)C[C@H](O[C@H]2C[C@H](N(C)C)[C@H](O[C@H]3C[C@H](O)[C@H](O[C@@H]4O[C@@H](C)C(=O)C=C4N)[C@H](C)O3)[C@H](C)O2)c2c(cc3c(c2O)C(=O)c2c(O)ccc(O)c2C3=O)[C@H]1C(=O)OC
- mutagenic call (Test System: AMES SALMONELLA TYPHIMURIUM, Strain/Indicator: TA98, Metabolic Activation: NONE): active; positive
- mutagenic call (Test System: AMES SALMONELLA TYPHIMURIUM, Strain/Indicator: TA98, Metabolic Activation: RAT, LIVER, S-9, AROCLOR 1254): active; positive

SMILES: O=P(O)(O)OC1C(OP(=O)(O)O)C(OP(=O)(O)O)C(OP(=O)(O)O)C(OP(=O)(O)O)C1OP(=O)(O)O (stereo not drawn)
- mutagenic call (Test System: MOUSE LYMPHOMA, Strain/Indicator: L5178Y (TK+/TK-), Metabolic Activation: NONE, Method: SUSPENSION/PLATE): inactive; negative. reevaluation of results: negative
- mutagenic call (Test System: MOUSE LYMPHOMA, Strain/Indicator: L5178Y (TK+/TK-), Metabolic Activation: RAT, LIVER, S-9, AROCLOR 1254, Method: SUSPENSION/PLATE): inactive; negative. reevaluation of results: negative

SMILES: O=NN(CCCl)C(=O)NCCCl
- mutagenic call (End Point: In vitro micronucleus, Test System: Human lymphoblastoid TK6 cells, Metabolic Activation: None): active; positive (not dose related)
- mutagenic call (Test System: AMES SALMONELLA TYPHIMURIUM, Strain/Indicator: TA1535, Metabolic Activation: NONE, Method: STANDARD PLATE): active; positive
- mutagenic call (Test System: CHINESE HAMSTER OVARY, Strain/Indicator: D422 (APRT), Metabolic Activation: NONE, Method: REPLATING): active; positive
- mutagenic call (Test System: CHINESE HAMSTER V-79, Strain/Indicator: V-79/6-THIOGUANINE, Metabolic Activation: NONE, Method: STANDARD PLATE): active; positive

SMILES: NC(CNCCCC[C@H](N)C(=O)O)C(=O)O (stereo partly drawn)
- mutagenic call [1]: inactive; negative
- mutagenic call (Test System: AMES SALMONELLA TYPHIMURIUM, Strain/Indicator: TA97, Metabolic Activation: RAT, KIDNEY, S-9, AROCLOR 1254, Method: PREINCUBATION): inactive; negative
- mutagenic call (Test System: AMES SALMONELLA TYPHIMURIUM, Strain/Indicator: TA97, Metabolic Activation: RAT, LIVER, S-9, AROCLOR 1254, Method: PREINCUBATION): inactive; negative
- mutagenic call [2]: inactive; negative
- mutagenic call (Test System: AMES SALMONELLA TYPHIMURIUM, Strain/Indicator: TA98, Metabolic Activation: RAT, KIDNEY, S-9, AROCLOR 1254, Method: PREINCUBATION): inactive; negative
- mutagenic call (Test System: AMES SALMONELLA TYPHIMURIUM, Strain/Indicator: TA98, Metabolic Activation: RAT, LIVER, S-9, AROCLOR 1254, Method: PREINCUBATION): inactive; negative
- mutagenic call (Test System: AMES SALMONELLA TYPHIMURIUM, Strain/Indicator: TA100, Metabolic Activation: NONE, Method: PREINCUBATION): inactive; negative
- mutagenic call (Test System: AMES SALMONELLA TYPHIMURIUM, Strain/Indicator: TA100, Metabolic Activation: RAT, KIDNEY, S-9, AROCLOR 1254, Method: PREINCUBATION): inactive; negative
- mutagenic call (Test System: AMES SALMONELLA TYPHIMURIUM, Strain/Indicator: TA100, Metabolic Activation: RAT, LIVER, S-9, AROCLOR 1254, Method: PREINCUBATION): inactive; negative
- mutagenic call (Test System: AMES SALMONELLA TYPHIMURIUM, Strain/Indicator: TA102, Metabolic Activation: NONE, Method: PREINCUBATION): inactive; negative
- mutagenic call (Test System: AMES SALMONELLA TYPHIMURIUM, Strain/Indicator: TA102, Metabolic Activation: RAT, KIDNEY, S-9, AROCLOR 1254, Method: PREINCUBATION): inactive; negative
- mutagenic call (Test System: AMES SALMONELLA TYPHIMURIUM, Strain/Indicator: TA102, Metabolic Activation: RAT, LIVER, S-9, AROCLOR 1254, Method: PREINCUBATION): inactive; negative
